Test system: MCF10A WT and MCF10A CDH1^−/− cells
Assay: Single-point confirmation screen (10 μM, CTB, 384-well), viability differential between isogenic lines
Format: cell-based, human
Details: averaged between three biological replicates, Supplementary Table 2
Experimental: In the single-point confirmation screen, compounds that preferentially harm MCF10A CDH1^−/− cells compared to the wild-type cells were now identified. Three biological replicates were performed for each of the isogenic cell lines at a single-point (10 μM) in 384-well plates. All assay plates had acceptable Z’ values above 0.4 and 23 out of 48 plates had values above 0.6. The POC R^2 correlation between the three biological replicates for the two isogenic cell lines were all above 0.8 (data not shown). A cell viability differential of ‘MCF10A WT POC – MCF10A CDH1^−/− POC’ was used to select hits. An arbitrary threshold for the mean differential of >8.5% was chosen in order to maximize the number of hits being screened in the subsequent stages and to reduce false negatives.
To incorporate a measure of the variability between replicates of the screen into the hit selection process, a further requirement was included of a minimum of 2/3 biological replicates having viability differentials >8.5%. This removed a further 52 compounds shown in blue with only one out of three biological replicates crossing the Y = X-8.5 line independent of the mean. In total, 256 compounds were above the hit selection threshold, thereby preferentially killing E-cadherin negative cells. The mean POC differential of the 256 hits was 17.6% +/− 7.1 (+/−SD), with the highest being 48% for SLEC-1 (Synthetic Lethal E-Cadherin compound 1). […] The resulting 256 SL compounds were then assayed in an 11-point screen for EC50 determination.
MCF10A WT and MCF10A CDH1^−/− cells were seeded into Corning black walled, clear bottom 384-well plates (assay plates) using a multidrop 384 reagent dispenser (Thermo Fisher Scientific) and a total volume of 50 μL per well.
As we have shown MCF10A CDH1^−/− cells have a prolonged lag to log phase growth of around 24 hours, in order to achieve a similar confluence at 72 hours post seeding MCF10A WT and MCF10A CDH1^−/− cell lines were seeded at 600 cells/well and 800 cells/well, respectively. […] At 72 hours post seeding, plates were removed from the incubator and left for 30 minutes at RT to equalise the temperature across all wells of the plates and reduce fluorescence-based edge effects before reading on an EnVision (PerkinElmer) at 550 nm excitation and 590 nm emission to quantify cell viability.
The coRFU values were then used to calculate the normalized readouts of percent of controls (Eq. 3) and the robust Z score (Eqs 4,5), where doxorubicin refers to an EC80 dose and DMSO was 0.2% v/v.3 coPOC=100×(SamplecoRFU−x¯doxorubicincoRFU)/(x¯DMSOcoRFU−x¯doxorubicincoRFU) 4 MAD=median([…]) 5 CorrectedrobustZscore=(SamplecoRFU−platemediancoRFU)/MAD

## COc1ccc2nc(C)cc(NCc3ccc(F)cc3)c2c1 [SLEC-11, N-(4-Fluorobenzyl)-6-methoxy-2-methylquinolin-4-amine]
  Differential at 1-pt: 17.42
